Results as given in PubChem BioAssay (NCI).
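Dose response: 5 concentrations. Exposure: 48 h. Format: 96-well plates. Endpoint: linear interpolation; highest concentration if not reached. TGI denotes the concentration required for complete inhibition of growth.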

Tests used:
Experiment in all cases: NCI anticancer screen, dose series, 48 h
UACC-62 melanoma = test system: UACC-62 melanoma
HOP-62 NSCLC = test system: HOP-62 NSCLC
LOX IMVI melanoma = test system: LOX IMVI melanoma
NCI-H23 lung = test system: NCI-H23 lung
MDA-MB-435 = test system: MDA-MB-435
UACC-257 melanoma = test system: UACC-257 melanoma
A498 renal = test system: A498 renal
HCT-116 colon = test system: HCT-116 colon
SF-268 CNS = test system: SF-268 CNS
IGROV1 ovarian = test system: IGROV1 ovarian

Row | SMILES | TGI (UACC-62 melanoma) [µM] | TGI (HOP-62 NSCLC) [µM] | TGI (LOX IMVI melanoma) [µM] | TGI (NCI-H23 lung) [µM] | TGI (MDA-MB-435) [µM] | TGI (UACC-257 melanoma) [µM] | TGI (A498 renal) [µM] | TGI (HCT-116 colon) [µM] | TGI (SF-268 CNS) [µM] | TGI (IGROV1 ovarian) [µM]
1 | NCCN1CCCCCc2ccccc21 | > 10 | > 10 | > 10 | > 10 | > 10 | > 10 | > 10 | > 10 | > 10 | > 10
2 | CCCCI(O)OS(=O)(=O)c1ccc(C)cc1 | > 100 | > 100 | 30.8 | > 100 | > 100 | > 100 | > 100 | > 100 | > 100 | 73.8
3 | COc1ccc2nc(NC(=O)/C(C#N)=C/c3ccccc3)sc2c1 | > 100 | > 100 | > 100 | > 100 | > 100 | > 100 | > 100 | > 100 | > 100 | > 86.3
4 | CC(C)NC(=O)OCc1c(COC(=O)NC(C)C)n(C)c2c1ccc1sccc12 | 32.5 | 46.4 | > 53.1 | 29.3 | 35.1 | 39.5 | 52.3 | 39 | 21.5 | 26.1
5 | CN(/N=C1\C(=O)Nc2ccccc21)c1ccccc1 | > 100 | > 100 | > 100 | > 100 | > 100 | > 100 | > 100 | > 100 | > 100 | > 100
6 | c1ccc(C2=NC3OC2c2ccccc23)cc1 (stereo unspecified) | > 10 | > 10 | > 10 | > 10 | > 10 | > 10 | > 10 | > 10 | > 10 | > 10
7 | [N-]=[N+]=CC(=O)C1CCCN1C(=O)c1ccccc1 (stereo unspecified) | > 10 | > 10 | > 10 | > 10 | > 10 | > 10 | > 10 | > 10 | > 10 | > 10
8 | Cc1c(C)n(-c2ccccc2)c2nc(S(C)=O)nc(S(C)=O)c12 (stereo unspecified) | 20.1 | 36.5 | 4.15 | 29.5 | 9.76 | 25.9 | 26.9 | 4.86 | 22.8 | 17.2
9 | COCOc1ccc(C(=O)Oc2cccc3c2OC(C)(C)O3)c(OCOC)c1 | 95.7 | > 100 | > 100 | 26.3 | > 100 | > 100 | > 100 | > 100 | > 100 | > 100
10 | CC1(C)CC(=O)C2=C(C1)C(c1ccccc1Cl)C1C(=O)CC(C)(C)CC1(O)O2 (stereo unspecified) | > 100 | > 100 | > 100 | > 100 | > 95.8 | > 95.9 | > 100 | > 100 | > 100 | > 100
11 | CN(C)CCN(c1ccccn1)c1ccccn1 | > 100 | > 100 | > 100 | > 100 | > 100 | > 100 | > 100 | > 100 | > 100 | > 100
12 | O=C(c1ccco1)N(C(=O)N1CCCCC1)c1ccccc1 | > 100 |  | > 100 | > 100 | > 100 | > 100 | > 100 | > 100 | > 100 | > 100
13 | C[C@@H]1CC[C@@]2(C)C(C(=O)O)=CCCC2[C@@]1(C)CC(=O)c1ccoc1 (stereo partly specified) | > 25 |  | > 25 | > 25 | > 25 | > 25 | > 25 | > 25 | > 25 | > 25
14 | CC(C)C(Br)CCC1=CCC(Br)(Br)C1 (stereo unspecified) | 19.9 | 30.8 | 3.05 | 21.5 | 22.5 | 28.2 | 32.8 | 27.9 | 31.2 | 10.8
15 | CC(=O)O[C@@H](c1nccn1Cc1ccccc1)[C@H]1OC(C)(C)O[C@@H]1[C@H]1COC(C)(C)O1 | > 100 | > 100 | > 100 | > 100 | > 100 | > 100 | > 100 | > 100 | > 100 | > 100
16 | O=c1c2c3c(sc2[nH]c(=S)n1-c1ccccc1)CCCc1ccc([N+](=O)[O-])cc1-3 | 85 | > 100 | 62.2 | > 100 | > 100 | > 100 | > 100 | > 100 | > 100 | 27.3
17 | O=C1C=CC2(O[C@H](c3ccccc3)[C@@H](c3ccccc3)O2)[C@H](Sc2ccccc2O)C1 | 2.13 | 3.98 | 0.338 | 2.39 | 0.982 | 1.71 | 5.15 | 0.309 | 0.964 | 0.593
18 | CCOC(=O)CSc1nc(N)c2c(-c3ccccc3)c3c(nc2n1)CCCC3 | > 100 | > 100 | > 100 | > 100 | > 100 | > 100 | > 100 | > 100 | > 100 | > 100
19 | CC(C)Oc1cccc(N2C(n3ccnc3)=Nc3ccncc3S2(=O)=O)c1 | 29.2 | 33.6 | 31.9 | 24.9 | 32.7 | 32 | 31.8 | 26.8 | 30.2 | 29.1
20 | CN(C)c1ccc(/C=C(\NC(=O)c2ccccc2)C(=O)NC(CC(=O)O)C(=O)O)cc1 (stereo unspecified) | > 100 | > 100 | > 100 | > 100 | > 100 | > 100 | > 100 | > 100 | > 100 | > 100
21 | S=C(Cc1ccc2c(c1)Sc1ccccc1O2)N1CCOCC1 | > 100 | > 100 | > 100 | > 100 | > 100 | > 100 | > 100 | > 100 | > 100 | > 100
22 | COc1cccc(C2c3cc4c(cc3OC(O)C2C)OCO4)c1OC (stereo unspecified) | 44.7 | 80.1 | 23.5 | 64 | 33.9 | 37.9 | 16.2 | 12.3 | 41.7 | 36.4

Row | SMILES | TGI (UACC-62 melanoma) [µM] | TGI (HOP-62 NSCLC) [µM] | TGI (LOX IMVI melanoma) [µM] | TGI (NCI-H23 lung) [µM] | TGI (MDA-MB-435) [µM] | TGI (UACC-257 melanoma) [µM] | TGI (A498 renal) [µM] | TGI (HCT-116 colon) [µM] | TGI (SF-268 CNS) [µM] | TGI (IGROV1 ovarian) [µM]
23 | O=C(O)c1nc2ccc(C(F)(F)F)cc2[nH]c1=O | > 100 | > 100 | > 100 | > 100 | > 100 | > 100 | > 100 | > 100 | > 100 | > 100
24 | Cc1ccc2cccc(-c3cccc4ccccc34)c2n1 | 61.9 | 56.9 | 31.3 | > 100 | 7.58 | > 100 | 46 | 95 | > 100 | > 100
25 | CN1CSC(=S)N(c2cccc(C(F)(F)F)c2)C1 | 31.7 | 70 | 43.1 | 33.2 | 51.9 | 50.7 | 82.1 | > 100 | 53 | 37.3
26 | O=C(/C=C/c1ccc(Cl)cc1)Oc1ccc(C=C2CCC/C(=C\c3ccc(OC(=O)/C=C/c4ccc(Cl)cc4)cc3)C2=O)cc1 | > 100 | > 100 | > 100 | > 100 | > 100 | > 100 | > 100 | > 100 | > 100 | > 100
27 | c1c[nH]c(-c2cccc3nsnc23)c1 | > 100 | > 100 | > 100 | > 100 | > 100 | > 100 | > 100 | > 100 | > 100 | > 100
28 | Cc1nc2ccc(Cl)cc2c(-n2ccnc2)c1CCn1ccnc1 | 62.5 | > 100 | > 100 | > 100 | > 100 | 61 | 76.2 | > 100 | > 100 | > 100
29 | CCOC(=O)c1c(N2CCCC2)[nH]c(=O)c(C(c2ccc(OC)cc2)c2c(O)c(C(=O)OCC)c(N3CCCC3)[nH]c2=O)c1O | > 100 | > 100 | > 100 | > 100 | > 100 | > 100 | > 100 | > 100 | > 100 | 
30 | CN(CCN1CCCC1)C1CCc2cc(Cl)c(Cl)cc2C1 (stereo unspecified) | 19.4 | 32.7 | 29.7 | 30.1 | 37.5 | 32.4 | 27.1 | 25.5 | 34 | 29.3
31 | CC(=O)c1ccc(Oc2c3ccccc3nc3ccccc23)cc1 | 17 | 29.5 | 17.9 | 56.6 | 10.5 | 15.4 | 31.8 | 8.81 | 17.9 | 17.4
32 | OCc1ccc2c(c1)CC1(C2)Cc2cc3c(cc2C1O)CCC3 (stereo unspecified) | 16.2 | 17.7 | 19.4 | 25.7 | 2.99 | 12.6 | 27.7 | 15.4 | > 72.7 | 26.8
33 | COC(=O)/C=C(/C=C1/C(C#N)=C(N)N(c2ccc(Cl)cc2)C1(C)/C(=C\C(=O)OC)C(=O)OC)C(=O)OC (stereo unspecified) | 27.4 | > 100 | 32.4 | 40.5 | 41 | 35.8 | > 100 | 31.2 | 47.8 | 60.2
34 | Cn1c2ccccc2n2c3ncccc3c(=O)c(C#N)c12 | 28.4 | 29.5 | 23.1 | 36.6 | > 100 | > 100 | 34 | > 59 | > 100 | > 100
35 | CC(=O)Nc1nc(Cl)cc(NCC2(CO)CCC2)n1 | > 100 | > 100 | > 100 | > 100 | > 100 | > 100 | > 100 | > 100 | > 100 | > 100
36 | O=C(CC(NC(=O)C(F)(F)F)C(=O)O)OCc1ccccc1 (stereo unspecified) | > 100 | > 100 | > 100 | > 100 | > 100 | > 100 | > 100 | > 100 | > 100 | > 100
37 | O=C(COc1ccc(OCC(=O)N/N=C/c2ccc(-c3ccc(Cl)cc3Cl)o2)c(Cl)c1)N/N=C/c1ccc(-c2ccc(Cl)cc2Cl)o1 | > 100 | > 100 | > 100 | > 100 | > 100 | > 100 | > 100 | > 100 | > 100 | > 100
38 | NC1=CC(=O)c2c(O)ccc(O)c2C1=O | 26.5 | 64.9 | 33.1 | 27.9 | 31.6 | 30.2 | 47.5 | 22.3 | > 70.1 | 29.5
39 | O=c1ccc2ccc(S)cc2o1 | > 100 | > 100 | > 100 | > 100 | > 100 | > 100 | > 100 | > 100 | > 100 | > 100
40 | O=c1c(F)cn2c(=O)n1CCCCCCCn1c(=O)c(F)cn(c1=O)CCCCCCC2 | > 100 | > 100 | > 100 | > 100 | > 100 | > 100 | > 100 | > 100 | 13.1 | > 100
41 | O=C(NCc1ccccc1)c1cc2ccccc2oc1=Nc1cccc(C(F)(F)F)c1 | > 100 | > 100 | > 100 | > 100 | > 100 | 84 | > 100 | > 100 | > 100 | > 100
42 | COc1ccc2ccc3oc(=O)c(C)cc3c2c1 | > 100 | > 100 | > 100 | > 100 | > 100 | > 100 | > 100 | > 100 | > 100 | > 100
43 | CCOC(=O)/C=C/c1nc(C#N)c(N)o1 | > 100 | > 100 | > 100 |  | > 100 | > 100 | > 100 | > 100 | > 100 | > 100
